Data from patent US20110256557A1, “IDENTIFYING PARATHYROID HORMONE AGONISTS AND ANTAGONISTS” (DISCOVERYBIOMED, INC., priority 2008, published 2011).

System: β-catenin
Assay: Western blot of cytosolic β-catenin in HEK 293 cells
Type: cell-based
Settings: HEK 293 cells; concentration- and time-dependent
Method: Cells were harvested in cavitation buffer (5 mM HEPES, pH 7.4, 3 mM MgCl2, 1 mM EGTA, 250 mM sucrose) containing protease and phosphatase inhibitors and homogenized by nitrogen cavitation (200 p.s.i., for 5 minutes) in a cell disruption bomb (Parr Instrument Co.; Moline, Ill.). The cell homogenate was centrifuged twice at 700 g for 10 minutes to pellet the nuclei. The supernatant was further centrifuged at 100,000 g (Beckman SW50.1 rotor) for 1 hour to separate the membrane and cytosol fractions, and the resulting membrane pellet was washed three times with cavitation buffer before use in the assays (Zhang et al., Biochem. J. 343:541-9 (1999)). Immunoprecipitation and Western blot analysis of cell lysates were performed as described previously (Wan et al., Am. J. Pathol. 166:1379-92 (2005)).

Parathyroid hormone [PTH]
levels of β-catenin in the cytosol: enhanced
